Measured values from patent US11000601B2, “Conjugated biological molecules, pharmaceutical compositions and methods” (OBI Pharma, Inc., priority 2016, dated 2021).
“And” between values parts separate entries of the source, which are not always exact repeats. Identical values can stand only once. Square brackets hold non-standard residues; d marks the D form. Peptide text beside a SMILES is read from it. * marks the point of attachment. Dolaproine = CO[C@@H]([C@@H]1CCCN1)[C@@H](C)C(=O)O; Dil = CC[C@H](C)[C@H](NC)[C@@H](CC(=O)O)OC; X1 = C[C@@H](N*)[C@@H](O)c1ccccc1; NMeV = CN[C@H](C(=O)O)C(C)C

Assay: Body weight, mortality and signs of overt toxicity in NCI-H526 implanted female nu/nu mice
Assay type: in vivo, mouse
Conditions: for Body Weight (g), Mean: group mean; for Body Weight (g), individual animal No. 1-8: single mice; for Body Weight / Body Weight (g): individual mice, 0.191 mg/kg
Procedure: In a xenograft tumor model of human small cell lung cancer, viable NCI-H526 stage E carcinoma; variant small cell lung cancer cells (ATCC CRL-5811), were subcutaneously (SC) implanted (1×10^6 cells with matrigel (1:0.8) in 0.2 mL/mouse) into the right flank of female nu/nu mice. Tumor implanted mice were divided into five treatment groups, each group containing eight animals, and test agent administrations were initiated one day after cell implantation (denoted as Day 1).
Female nu/nu nude, aged 6-7 weeks, were obtained from BioLasco Taiwan (under Charles River Laboratories Licensee) and used. The animals were housed in individually ventilated cages (IVC, 36 Mini Isolator system). The allocation for 5 animals was 27×20×14 in cm. All animals were maintained in a hygienic environment under controlled temperature (20-24° C.) and humidity (30-70%) with 12-hour light/dark cycle. Free access to standard lab diet [MFG (Oriental Yeast Co., Ltd., Japan)] and autoclaved tap water were granted. All aspects of this work including housing, experimentation, and animal disposal were performed in general accordance with the “Guide for the Care and Use of Laboratory Animals: Eighth Edition” (National Academies Press, Washington, D.C., 2011) in our AAALAC-accredited laboratory animal facility. In addition, the animal care and use protocol was reviewed and approved by the IACUC at Eurofins Panlabs Taiwan, Ltd.
The tumor volumes, body weights, mortality, and signs of overt toxicity were monitored and recorded twice weekly for 45 days. Tumor growth inhibition was calculated as T/C (treatment/control)×100%. A T/C value≤42% compared to that of the vehicle control group was considered significant anti-tumor activity. Two-way ANOVA followed by Bonferroni test was used to ascertain the statistically significant significance of groups compared to respective vehicle control (*p<0.05).

[1] = Day 1, NCI-H526 xenograft, female nu/nu mice, OBI-999/OBI-888 10 mg/kg IV, MMAE 0.191 mg/kg IP, once weekly x 4
[2] = Day 4, NCI-H526 xenograft, female nu/nu mice, OBI-999/OBI-888 10 mg/kg IV, MMAE 0.191 mg/kg IP, once weekly x 4
[3] = Day 15, NCI-H526 xenograft, female nu/nu mice, OBI-999/OBI-888 10 mg/kg IV, MMAE 0.191 mg/kg IP, once weekly x 4
[4] = Day 18, NCI-H526 xenograft, female nu/nu mice, OBI-999/OBI-888 10 mg/kg IV, MMAE 0.191 mg/kg IP, once weekly x 4
[5] = Day 31, NCI-H526 xenograft, female nu/nu mice, OBI-999/OBI-888 10 mg/kg IV, MMAE 0.191 mg/kg IP, once weekly x 4
[6] = Day 39, NCI-H526 xenograft, female nu/nu mice, OBI-999/OBI-888 10 mg/kg IV, MMAE 0.191 mg/kg IP, once weekly x 4
[7] = Gr. 8, 0.191 mg/kg × 4 IP once weekly, Day 57
[8] = Gr. 8, 0.191 mg/kg × 4 IP once weekly, Day 60
[9] = Gr. 8, 0.191 mg/kg × 4 IP once weekly, Day 64
[10] = Gr. 8, 0.191 mg/kg × 4 IP once weekly, Day 67
[11] = Gr. 8, 0.191 mg/kg × 4 IP once weekly, Day 70
[12] = Gr. 8, 0.191 mg/kg × 4 IP once weekly, Day 74
[13] = Gr. 8, 0.191 mg/kg × 4 IP once weekly, Day 78
[14] = Gr. 8, 0.191 mg/kg × 4 IP once weekly, Day 81
[15] = Gr. 8, 0.191 mg/kg × 4 IP once weekly, Day 85

SMILES: CC[C@H](C)[C@@H]([C@@H](CC(=O)N1CCC[C@H]1[C@H](OC)[C@@H](C)C(=O)N[C@H](C)[C@@H](O)c1ccccc1)OC)N(C)C(=O)[C@@H](NC(=O)[C@@H](NC)C(C)C)C(C)C [MMAE, monomethyl auristatin E] (H-[NMeV]V[Dil][Dolaproine]-X1)
- Body Weight (g), Mean [1]: 23.9 g
- Body Weight (g), individual animal No. 1-8 [1]: 24 g (3×) and 25 g and 26 g and 23 g (2×) and 22 g
- Body Weight (g), Mean [2]: 23.6 g
- Body Weight (g), individual animal No. 1-8 [2]: 22 g and 25 g and 27 g and 21 g and 23 g (2×) and 24 g (2×)
- Body Weight (g), individual animal No. 1-8 (Day 8, NCI-H526 xenograft, female nu/nu mice, OBI-999/OBI-888 10 mg/kg IV, MMAE 0.191 mg/kg IP, once weekly x 4): 24 g (2×) and 26 g and 28 g and 21 g and 25 g (2×) and 23 g
- Body Weight (g), individual animal No. 1-8 (Day 11, NCI-H526 xenograft, female nu/nu mice, OBI-999/OBI-888 10 mg/kg IV, MMAE 0.191 mg/kg IP, once weekly x 4): 24 g (3×) and 28 g (2×) and 23 g (2×) and 25 g
- Body Weight (g), Mean [3]: 25.4 g
- Body Weight (g), individual animal No. 1-8 [3]: 25 g (2×) and 28 g (2×) and 24 g (2×) and 23 g and 26 g
- Body Weight (g), Mean [4]: 25.4 g
- Body Weight (g), individual animal No. 1-8 [4]: 25 g (3×) and 28 g (2×) and 24 g (3×)
- Body Weight (g), individual animal No. 1-8 (Day 22, NCI-H526 xenograft, female nu/nu mice, OBI-999/OBI-888 10 mg/kg IV, MMAE 0.191 mg/kg IP, once weekly x 4): 24 g (2×) and 28 g (2×) and 25 g (4×)
- Body Weight (g), individual animal No. 1-8 (Day 25, NCI-H526 xenograft, female nu/nu mice, OBI-999/OBI-888 10 mg/kg IV, MMAE 0.191 mg/kg IP, once weekly x 4): 26 g (3×) and 30 g and 29 g and 25 g (3×)
- Body Weight (g), individual animal No. 1-8 (Day 29, NCI-H526 xenograft, female nu/nu mice, OBI-999/OBI-888 10 mg/kg IV, MMAE 0.191 mg/kg IP, once weekly x 4): 25 g and 32 g and 31 g and 26 g (2×) and 27 g (3×)
- Body Weight (g), Mean [5]: 27.8 g
- Body Weight (g), individual animal No. 1-8 [5]: 25 g and 32 g (2×) and 26 g (2×) and 27 g (3×)
- Body Weight (g), individual animal No. 1-8 (Day 36, NCI-H526 xenograft, female nu/nu mice, OBI-999/OBI-888 10 mg/kg IV, MMAE 0.191 mg/kg IP, once weekly x 4): 26 g (2×) and 33 g (2×) and 28 g and 27 g and 29 g (2×)
- Body Weight (g), Mean [6]: 30.3 g
- Body Weight (g), individual animal No. 1-8 [6]: 27 g (3×) and 38 g and 34 g and 30 g (2×) and 29 g
- Body Weight [7]: 27 g (4×) and 24 g and 26 g
- Body Weight (g) [7]: died
- Body Weight [8]: 27 g (2×) and 25 g and 28 g (2×) and 26 g
- Body Weight (g) [8]: died
- Body Weight (g), Mean [9]: 26.7 g
- Body Weight [9]: 27 g (4×) and 24 g and 28 g
- Body Weight (g) [9]: died
- Body Weight [10]: 27 g (2×) and 25 g and 28 g (3×)
- Body Weight (g) [10]: died
- Body Weight [11]: 26 g (2×) and 25 g and 27 g (3×)
- Body Weight (g) [11]: died
- Body Weight [12]: 27 g and 24 g (2×) and 28 g (3×)
- Body Weight (g) [12]: died
- Body Weight [13]: 28 g (4×) and 25 g (2×)
- Body Weight (g) [13]: died
- Body Weight [14]: 28 g (3×) and 25 g and 27 g and 24 g
- Body Weight (g) [14]: died
- Body Weight [15]: 27 g and 25 g and 28 g (2×) and 29 g and 23 g
- Body Weight (g) [15]: died
- Body Weight (g), Mean (Gr. 8, 0.191 mg/kg × 4 IP once weekly, Day 100): 27.9 g
